Source: the supplement of paper PMC10307832

How the values were obtained:
Experiment in all cases: relative viability (nuclei count vs DMSO), 5 days (fraction); higher = more cells survive
[1] = tested on: A549
How it was run: (§1)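 Relative viability equals treated-well nuclei counts divided by vehicle-well nuclei counts. Counts came from 4× images of lung cancer cell lines grown in 1536-well plates for 5 days after pin-tool dosing on the day after seeding. Dosing used one drug alone or a fixed anchor-drug dose plus five library-drug doses (not always all listed) in √10 steps, and values are medians of duplicate plates.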

[2] = tested on: Calu-6
How it was run: as §1

[3] = tested on: EBC-1
How it was run: as §1

[4] = tested on: IA-LM
How it was run: as §1

[5] = tested on: NCI-H1299
How it was run: as §1

[6] = tested on: NCI-H1703
How it was run: as §1

[7] = tested on: NCI-H2009
How it was run: as §1

[8] = tested on: NCI-H460
How it was run: as §1

[9] = tested on: NCI-H661
How it was run: as §1

Work on CC1(C)CCC(c2ccc(Cl)cc2)=C(CN2CCN(c3ccc(C(=O)NS(=O)(=O)c4ccc(N[C@H](CCN5CCOCC5)CSc5ccccc5)c(S(=O)(=O)C(F)(F)F)c4)cc3)CC2)C1 [Navitoclax] + CS(=O)(=O)CCNCc1ccc(-c2ccc3ncnc(Nc4ccc(OCc5cccc(F)c5)c(Cl)c4)c3c2)o1 [Lapatinib] (partner 2 µM) yielded a relative viability ([1]; first compound 0.005 µM) of 1.06, a relative viability ([1]; first compound 0.01581 µM) of 1.02 and a relative viability ([1]; first compound 0.05 µM) of 1.07. For the same compound, the relative viability ([1]; first compound 0.1581 µM) was 0.945, the relative viability ([1]; first compound 0.5 µM) was 0.949 and the relative viability ([2]; first compound 0.005 µM) was 1.14. The relative viability ([2]; first compound 0.01581 µM) was 1.13, the relative viability ([2]; first compound 0.05 µM) was 1.05 and the relative viability ([2]; first compound 0.1581 µM) was 1.04. It also gave a relative viability ([2]; first compound 0.5 µM) of 1.01, a relative viability ([3]; first compound 0.005 µM) of 0.181 and a relative viability ([3]; first compound 0.01581 µM) of 0.2. It also gave a relative viability ([3]; first compound 0.05 µM) of 0.193, a relative viability ([3]; first compound 0.1581 µM) of 0.245 and a relative viability ([3]; first compound 0.5 µM) of 0.212. The relative viability ([4]; first compound 0.005 µM) was 0.659, the relative viability ([4]; first compound 0.01581 µM) was 1.16 and the relative viability ([4]; first compound 0.05 µM) was 1.06. The relative viability ([4]; first compound 0.1581 µM) was 1.02, the relative viability ([4]; first compound 0.5 µM) was 0.903 and the relative viability ([5]; first compound 0.005 µM) was 0.931. It also gave a relative viability ([5]; first compound 0.01581 µM) of 0.956, a relative viability ([5]; first compound 0.05 µM) of 1 and a relative viability ([5]; first compound 0.1581 µM) of 0.979. For the same compound, the relative viability ([5]; first compound 0.5 µM) was 1, the relative viability ([6]; first compound 0.005 µM) was 0.928 and the relative viability ([6]; first compound 0.01581 µM) was 1.18. It also gave a relative viability ([6]; first compound 0.05 µM) of 1.34, a relative viability ([6]; first compound 0.1581 µM) of 1.27 and a relative viability ([6]; first compound 0.5 µM) of 1.01. For the same compound, the relative viability ([7]; first compound 0.005 µM) was 0.938, the relative viability ([7]; first compound 0.01581 µM) was 1.14 and the relative viability ([7]; first compound 0.05 µM) was 0.953. For the same compound, the relative viability ([7]; first compound 0.1581 µM) was 0.9, the relative viability ([7]; first compound 0.5 µM) was 0.998 and the relative viability ([8]; first compound 0.005 µM) was 0.909. For the same compound, the relative viability ([8]; first compound 0.01581 µM) was 0.917, the relative viability ([8]; first compound 0.05 µM) was 1.09 and the relative viability ([8]; first compound 0.1581 µM) was 0.892. For the same compound, the relative viability ([8]; first compound 0.5 µM) was 0.905, the relative viability ([9]; first compound 0.005 µM) was 0.542 and the relative viability ([9]; first compound 0.01581 µM) was 0.613. It also gave a relative viability ([9]; first compound 0.05 µM) of 0.484, a relative viability ([9]; first compound 0.1581 µM) of 0.504 and a relative viability ([9]; first compound 0.5 µM) of 0.391.
C=C1C(=O)O[C@@H](CCCCCCCC)[C@@H]1C(=O)O [C-75] + C[C@]1(O)C[C@@H](c2nc(-c3ccc4ccc(-c5ccccc5)nc4c3)c3c(N)nccn32)C1 [Linsitinib] (partner 1 µM) gave a relative viability ([1]; first compound 0.08 µM) of 0.526, a relative viability ([1]; first compound 0.253 µM) of 0.753 and a relative viability ([1]; first compound 0.8 µM) of 0.549. The relative viability ([1]; first compound 2.53 µM) was 0.37, the relative viability ([1]; first compound 8 µM) was 0.628 and the relative viability ([2]; first compound 0.08 µM) was 0.902. For the same compound, the relative viability ([2]; first compound 0.253 µM) was 0.941, the relative viability ([2]; first compound 0.8 µM) was 0.905 and the relative viability ([2]; first compound 2.53 µM) was 0.916. For the same compound, the relative viability ([2]; first compound 8 µM) was 0.724, the relative viability ([3]; first compound 0.08 µM) was 0.878 and the relative viability ([3]; first compound 0.253 µM) was 1.05. It also gave a relative viability ([3]; first compound 0.8 µM) of 0.82, a relative viability ([3]; first compound 2.53 µM) of 0.821 and a relative viability ([3]; first compound 8 µM) of 0.734. It also gave a relative viability ([4]; first compound 0.08 µM) of 0.682, a relative viability ([4]; first compound 0.253 µM) of 0.644 and a relative viability ([4]; first compound 0.8 µM) of 0.53. For the same compound, the relative viability ([4]; first compound 2.53 µM) was 0.556, the relative viability ([4]; first compound 8 µM) was 0.53 and the relative viability ([5]; first compound 0.08 µM) was 1.01. For the same compound, the relative viability ([5]; first compound 0.253 µM) was 0.908, the relative viability ([5]; first compound 0.8 µM) was 1.05 and the relative viability ([5]; first compound 2.53 µM) was 0.814. It also gave a relative viability ([5]; first compound 8 µM) of 1.06, a relative viability ([6]; first compound 0.08 µM) of 0.752 and a relative viability ([6]; first compound 0.253 µM) of 0.591. It also gave a relative viability ([6]; first compound 0.8 µM) of 0.672, a relative viability ([6]; first compound 2.53 µM) of 0.457 and a relative viability ([6]; first compound 8 µM) of 0.632. For the same compound, the relative viability ([7]; first compound 0.08 µM) was 1.19, the relative viability ([7]; first compound 0.253 µM) was 1.09 and the relative viability ([7]; first compound 0.8 µM) was 1.11. For the same compound, the relative viability ([7]; first compound 2.53 µM) was 1.02, the relative viability ([7]; first compound 8 µM) was 0.997 and the relative viability ([8]; first compound 0.08 µM) was 0.718. It also gave a relative viability ([8]; first compound 0.253 µM) of 0.823, a relative viability ([8]; first compound 0.8 µM) of 0.72 and a relative viability ([8]; first compound 8 µM) of 0.582. The relative viability ([9]; first compound 0.08 µM) was 0.504, the relative viability ([9]; first compound 0.253 µM) was 0.571 and the relative viability ([9]; first compound 0.8 µM) was 0.461. The relative viability ([9]; first compound 2.53 µM) was 0.491 and the relative viability ([9]; first compound 8 µM) was 0.457.
